According to patent publication US20210290597A1, “METHOD OF TREATING A CONDITION ASSOCIATED WITH NEURODEGENERATION USING INHIBITORS OF OAT3” (Neuropore Therapies, Inc., priority 2018, published 2021):

Tests used:
human transporter OCT2 = molecular target: T1, human transporter OCT2 (Homo sapiens, UniProt O15244); test: In vitro ion transport assay 1, OCT2; type: cell-based; conditions: probe substrate 10 μM [14C]-metformin
T1 construct: expressed in transfected cells; host or cells: MDCK-II
T1 sequence (O15244 1-555): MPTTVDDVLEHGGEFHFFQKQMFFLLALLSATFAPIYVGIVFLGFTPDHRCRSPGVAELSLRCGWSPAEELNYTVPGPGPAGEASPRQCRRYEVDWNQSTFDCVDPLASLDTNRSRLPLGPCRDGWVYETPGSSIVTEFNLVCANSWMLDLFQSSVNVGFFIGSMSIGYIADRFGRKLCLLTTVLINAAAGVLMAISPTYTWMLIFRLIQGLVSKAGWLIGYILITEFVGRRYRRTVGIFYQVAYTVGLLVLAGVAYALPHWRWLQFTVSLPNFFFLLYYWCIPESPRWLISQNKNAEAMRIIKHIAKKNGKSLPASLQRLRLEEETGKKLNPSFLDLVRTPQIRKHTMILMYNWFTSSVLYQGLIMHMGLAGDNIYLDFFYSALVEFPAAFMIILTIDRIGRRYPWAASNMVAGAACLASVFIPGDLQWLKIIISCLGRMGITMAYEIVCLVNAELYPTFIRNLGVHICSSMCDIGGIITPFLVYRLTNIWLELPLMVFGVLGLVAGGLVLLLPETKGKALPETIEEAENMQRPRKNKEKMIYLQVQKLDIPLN
Experimental: Compound 1 was studied in the concentration range of 0.1-100 μM for its potency against transport mediated by various transporter proteins. [table]

human transporter URAT1 = molecular target: T2, human transporter URAT1 (Homo sapiens, UniProt Q96S37); test: In vitro transport assay 2, URAT1; type: cell-based; conditions: 20 μM [14C]-uric acid
T2 construct: expressed in transfected cells; host or cells: MDCK-II
T2 sequence (Q96S37 1-553): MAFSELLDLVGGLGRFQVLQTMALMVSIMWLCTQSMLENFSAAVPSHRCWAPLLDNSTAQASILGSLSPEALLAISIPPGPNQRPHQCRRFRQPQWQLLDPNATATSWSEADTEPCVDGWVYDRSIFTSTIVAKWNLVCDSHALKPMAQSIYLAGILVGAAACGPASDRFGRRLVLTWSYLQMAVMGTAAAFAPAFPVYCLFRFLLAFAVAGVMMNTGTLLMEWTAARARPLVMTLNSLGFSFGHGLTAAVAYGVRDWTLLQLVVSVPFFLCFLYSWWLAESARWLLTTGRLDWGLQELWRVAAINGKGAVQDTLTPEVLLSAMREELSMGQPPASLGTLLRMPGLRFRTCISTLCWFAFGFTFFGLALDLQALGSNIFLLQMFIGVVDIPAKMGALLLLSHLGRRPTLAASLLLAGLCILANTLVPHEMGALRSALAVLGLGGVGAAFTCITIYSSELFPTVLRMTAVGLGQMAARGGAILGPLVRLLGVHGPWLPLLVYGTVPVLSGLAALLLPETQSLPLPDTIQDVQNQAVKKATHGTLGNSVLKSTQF
Experimental: Compound 1 was studied in the concentration range of 0.1-10 μM for its potency against transport mediated by various transporter proteins.

L61 ASYN transgenic mice = test: Grip strength, L61 ASYN transgenic mice, 3 month study; type: in vivo; conditions: 5 mg/kg and 10 mg/kg i.p. daily, after 70 days of treatment
Experimental: The effects of Compound 1 on the motor performance deficits (grip strength) and a marker of neuroinflammation (Translocator Protein (18 kDa)) were assessed in both L61 ASYN transgenic and non-transgenic mice in a 3 month administration study.
Briefly, Compound 1 was injected into L61 ASYN transgenic mice and non-transgenic control mice (i.p., once daily) at doses of 5 and 10 mg/kg for 3 months (79 total mice, n=14-17 mice per treatment group). The vehicle control consisted of a solution containing 5% DMSO+20% Cremphor EL+0.9% normal saline. The baseline grip strength of mice was evaluated prior to starting treatments for the 3 month study, and then re-evaluated following 70 days of treatment with vehicle or Compound 1 (5 or 10 mg/kg, i.p. injection daily).

Question: What does the source list for O=S(=O)(c1ccc(-n2cn[nH]c2=S)cc1)c1ccc(Cl)c(C(F)(F)F)c1 [Compound 1, 4-(4-((4-chloro-3-(trifluoromethyl)phenyl)sulfonyl)phenyl)-2,4-dihydro-3H-1,2,4-triazole-3-thione]?
Answer: IC50 (human transporter OCT2): > 100 µM; IC50 (human transporter URAT1): > 10 µM; grip strength vs vehicle-treated transgenic mice (L61 ASYN transgenic mice): higher grip strengths
